Laboratory results published in US8314118B2, “Methods and compositions for treating dry eye” (priority 2009, dated 2012).

Legend:
Format in all cases: in vivo, Sprague-Dawley rats
DB rats [1] = experiment: Schirmer test of tear production in STZ-diabetic (DB) rats after topical treatment
Protocol: (§1) Male Sprague-Dawley rats (˜245 g) were obtained from Charles River Laboratories (Wilmington, Mass.) and housed under standard laboratory conditions. All investigations conformed to the regulations of the ARVO, National Institutes of Health, and the guidelines of the Department of Comparative Medicine of The Pennsylvania State University.
(§2) Briefly, an intraperitoneal (i.p.) injection of 40 mg/kg streptozotocin (STZ, Sigma, St. Louis, Mo.) in ice-cold 0.5 mol/l citrate buffer (pH 4.5) was administered. […] Fifteen animals not receiving STZ, but injected with citrate buffer, were considered Normal.
Tear secretion was measured with Schirmer strips (Alcon Laboratories, Inc., Ft. Worth Tex.). […] The strip wetting length was measured to the nearest millimeter. Five minutes prior to administration of the Schirmer strip, animals received topical Proparacaine Hydrochloride Ophthalmic Solution 0.5% (Akorn, Inc., Buffalo Grove, Ill.).
(§3) Naltrexone hydrochloride (Sigma-Aldrich, Indianapolis, Ind.) was prepared in Vigamox (moxifloxacin hydrochloride ophthalmic solution, Alcon, Inc, Ft. Worth, Tex.) at a 10^−5 M concentration. NTX was given as a single drop (0.05 ml) to the central cornea of the right eye, with the lower eyelid held away from the eye to avoid overflow.
(§4) Insulin or vehicle was applied topically at 0800 hours.
(§5) For body weights and glucose measurements, Student two-tailed t-tests were utilized. With Schirmer tests and aesthesiometer measurements, one-way analysis of variance with Newman-Keuls post tests was employed because measurements were conducted on a random sample of two-thirds of the rats in each group.

Normal rats with Dry Eye = experiment: Schirmer test of tear production in Normal rats with dry eye or "wet" eye
Protocol: FIG. 7. Tear production of Normal rats with Dry Eye (upper panel) and “Wet” eye (lower panel). Animals were measured at baseline, and given 1 drop of topical 10^−6 M naltrexone hydrochloride (NTX). The horizontal black line represents mean baseline for comparisons. Data are expressed as mean (SEM) for 7 rats per group at each time point except 48 hr wherein n=3 rats.
Tear secretion was measured with Schirmer strips (Alcon Laboratories, Inc., Ft. Worth Tex.). A standard 17 mm long Schirmer strip was inserted into the lower cul-de-sac for 1 min. The strip wetting length was measured to the nearest millimeter. Five minutes prior to administration of the Schirmer strip, animals received topical Proparacaine Hydrochloride Ophthalmic Solution 0.5% (Akorn, Inc., Buffalo Grove, Ill.). Testing began 1 hour after the last drop of NTX or vehicle was administered, and continued every 24 hours thereafter.
Sprague-Dawley rats, males of 15-22 weeks of age, were tested for dry eye and therapeutic effects of opioid antagonists. […] All of these measures used a test called the Schirmer Test, as described in Example 1 (the same test used for humans).

ocular surface = experiment: Slit-lamp observations of the ocular surface; details: during and after NTX administration
Protocol: To examine general overall morphology and pathology (e.g., corneal edema, scarring), observations with a hand-held slit lamp (Zeiss HSO 10 Hand Slit Lamp, Dublin, Calif.) were conducted.

DB rats [2] = experiment: Corneal sensitivity by aesthesiometer in STZ-diabetic (DB) rats after topical treatment; details: for reduction in corneal sensitivity from Normal animals: DB NTX group
Protocol: as §1, §2
Corneal sensitivity was determined by an aesthesiometer (Cachet and Bonnet-Aesthesiometer, Boca Raton, Fla.). The values (g/mm^2) were determined directly from the protocol (and conversion table) supplied by the manufacturer.
Measurements of sensitivity were conducted prior to the Schirmer test.
as §3, §4, §5

[3] = Normal rats with dry eye, one drop of NTX 10^−6 M

O=C1CC[C@@]2(O)[C@H]3Cc4ccc(O)c5c4[C@@]2(CCN3CC2CC2)[C@H]1O5 [NTX, 17-(cyclopropylmethyl)-4,5α-epoxy-3,14-dihydroxymorphinan-6-one]
reduction of tear production from Normal animals (DB rats [1]; DB NTX group, 96 hours after termination of 1 or 5 days of NTX q.i.d.): 22-59%
time to restoration of tear secretion (DB rats [1]; DB rats, 1 drop of topical NTX 10^−5 M in Vigamox): ≤ 1 h
time for which Schirmer scores were comparable to Normal rats (DB rats [1]; DB rats, NTX q.i.d. for 1 or 5 days, from 1 hour after termination of drug exposure): at least 3 days
time for which tear production was similar to Normal animals (DB rats [1]; DB rats, after 1 drop of NTX): at least 48 hours
duration of therapeutic effect (DB rats [1]; four drops (10^−6 M) over a twelve-hour period): at least 72 hours
duration of effect on dry eye (DB rats [1]; only one daily topical application): more than 2 days
change in moisture of animals with "wet" eye (Normal rats with Dry Eye; Normal rats with "wet" eye, one drop of NTX): no change in moisture
persistence of "wet" eye (Normal rats with Dry Eye; [3]): maintained at 24 and 48 hr
time of return to dry eye (Normal rats with Dry Eye; [3]): ≤ 72 h
time to reversal of dry eye (Normal rats with Dry Eye; Normal rats with dry eye, one drop of NTX 10^−6 M in VIGAMOX): within an hour
duration of therapeutic effect (Normal rats with Dry Eye; one to two drops (10^−6 M)): 48 h
time to reversal of dry eye conditions (Normal rats with Dry Eye; one to two drops (10^−6 M)): within an hour or so
abnormalities of the ocular surface on slit-lamp examination (ocular surface): did not reveal any abnormalities
reduction in corneal sensitivity from Normal animals (DB rats [2]; 120 hours after termination of 1 day of NTX q.i.d.): 1.8 fold
reduction in corneal sensitivity from Normal animals (DB rats [2]; 192 hours after termination of 5 day NTX q.i.d.): 1.9 fold
reduction in corneal sensitivity from Normal animals (DB rats [2]; 216 hours after termination of 5 day NTX q.i.d.): 1.7 fold
time for which corneal sensitivity stayed comparable to Normal (DB rats [2]; DB rats, 1 drop of NTX, entire period of the experiment): 96 h
time to restoration of corneal sensitivity (DB rats [2]; DB rats, 1 drop of topical NTX): ≤ 1 h
time for which corneal sensitivity scores were comparable to Normal rats (DB rats [2]; DB rats, NTX q.i.d. for 1 or 5 days, from 1 h after termination of drug exposure): at least 4 days

INS: Bovine insulin (Sigma-Aldrich) prepared in Vigamox, utilized at a concentration of 1 U
decrease of Schirmer score from Normal rats (DB rats [1]; DB INS group, at 1, 24 and 48 hour time points): 35-58%
effect on tear production (DB rats [1]; DB rats, 1 drop of topical INS (1 U)): no effect
corneal sensitivity compared with Normal animals (DB rats [2]; DB rats, 1 drop of topical INS, 1, 24 and 48 h): did not differ from the Normal animals
